# Assay results as given in patent US12234257B2, “Triterpene saponin derivative and use thereof” (KOREA INSTITUTE OF SCIENCE AND TECHNOLOGY, priority 2020, dated 2025).
# Tested on: LC3-II
# Experiment: Autophagy induction assay (LC3-II/LC3-I ratio by western blot)
# Type: cell-based, human
# Details: SH-SY5Y cells; for LC3-II expression: treatment with astersaponin I
# Protocol: Protein markers contained in lysates of the SH-SY5Y cells and brain tissue of the mice (SNpc and ST) were measured by western blot analysis. Briefly, after determining a concentration, a protein sample (20 μg) was separated by 8%, 10%, or 15% sodium dodecyl sulfate-polyacrylamide gel electrophoresis (SDS-PAGE). Then, proteins separated on the gel were transferred to a polyvinylidene fluoride (PVDF) membrane for 45 minutes using a Trans-Blot Turbo Transfer System (Bio-Rad, USA). The membrane was washed with tris-buffered saline with 0.1% Tween 20, TBST) for 5 minutes and then blocked by 5% skim milk dissolved in a TBST buffer. The membrane was further incubated with monoclonal primary antibodies derived from rabbits (anti-GAPDH, anti-AMPK, anti-p-AMPK, anti-ULK, anti-p-ULK555, anti-Erk, anti-p-Erk, anti-mTOR, anti-p-mTOR, anti-LC3B, anti-TH, and anti-α-synuclein antibodies). The primary antibodies were diluted in a blocking buffer at a ratio of 1:1000 and incubated overnight at 4° C. On the second day, the membrane was washed with TBST three times (10 minutes each) and incubated at room temperature in a horseradish peroxidase-conjugated goat anti-rabbit IgG secondary antibody (diluted in a blocking buffer at a ratio of 1:2000). After incubating in the secondary antibody for 1 hour, the membrane was washed for 30 minutes. The protein blots on the membrane were developed using an ECL detection kit and visualized using an LAS-4000 mini system (Fujifilm, Japan). The intensity of the protein blots was quantified using Multi Gauge software (Fujifilm, Japan).
# To investigate the autophagy inducing effect of A. koraiensis, human neuroblastoma (SH-SY5Y) cells were cultivated in 6-well plates at a density of 8×10^5 cells/well in 2 mL DMEM medium (Gibco) at 37° C. in a humidified atmosphere with 5% CO2. […] The protein expression of LC3-II in cell lysates was measured using western blot analysis. […] The immune blots were visualized using an ECL detection kit and analyzed using a LAS-4000 mini system (Fujifilm).
structure (smiles),measurement,setting,value
"C[C@@H]1O[C@@H](O[C@@H]2[C@@H](O)[C@H](O[C@@H]3[C@@H](O[C@@H]4OC[C@@H](O)[C@H](O)[C@H]4O)[C@@H](O)[C@H](O[C@H]4[C@H](OC(=O)[C@]56CCC(C)(C)C[C@H]5C5=CC[C@@H]7[C@@]8(C)C[C@H](O)[C@H](O[C@@H]9O[C@H](CO)[C@@H](O)[C@H](O[C@@H]%10OC[C@@H](O)[C@H](O)[C@H]%10O)[C@H]9O)[C@@](C)(CO)[C@@H]8CC[C@@]7(C)[C@]5(C)C[C@H]6O)OC[C@H](O)[C@@H]4O)O[C@H]3C)OC[C@H]2O)[C@H](O)[C@H](O)[C@H]1O [Compound 1, 3-O-β-D-xylopyranosyl-(1→3)-β-D-glucopyranosylpolygalacic acid 28-O-α-L-rhamnopyranosyl-(1→3)-β-D-xylopyranosyl-(1→4)-[β-D-xylopyranosyl-(1→3)]-α-L-rhamnopyranosyl-(1→2)-α-L-arabinopyranosyl ester]",LC3-II/LC3-I ratio,"24 hours, 5 μM, 10 μM and 20 μM",increase in the LC3-II/LC3-I ratio in a dose-dependent manner
same,LC3-II expression,,significantly increasing the expression
same,LC3-II expression,listed as astersaponin I,up-regulated LC3-II expression in a dose-dependent manner
